Source: US9078868B2, “Therapeutic agent for accelerating recovery of animal under medical treatment” (UNIVERSITY OF MIYAZAKI, priority 2010, dated 2015)
No end group written: not given here. *: point of attachment. Octanoyl = CCCCCCCC(=O)*

Test system: animals with poor physical conditions, surgery or no surgery
Experiment: Example 3-2: improvement after ghrelin in animals which had or had not undergone a surgery
Type: in vivo, canines and felines
Details: dash = no significant difference
Method: A canine-derived ghrelin was repeatedly administered intravenously or subcutaneously to each of the animals with poor physical conditions. The dose of intravenous administration was approximately 5 μg/kg or 10 μg/kg, and the dose of subcutaneous administration was approximately 100 μg/kg. The mean number of doses in repeated administration was approximately four times, and the maximum number of doses was 11 times. The administration period was one to six days.
Evaluation parameters evaluated before and after administration of ghrelin were appetite, quantity of meal, biochemical test values (GOT, GPT, BUN, CRE, CPK, CRP), blood cell test values (white blood cell [WBC], platelet [PLT]), body temperature, activity (vigor), skin, coat, wellness, the degree of anger or anxiety, respiratory rate, and others. These parameters were analyzed together with the results of the animals receiving a single dose (Examples 1 and 2). The analysis results were compiled by disease, such as renal dysfunction, tumor, fracture, and accident (see Table 3-1). Statistical analysis of values before and after administration was performed using a paired t-test.
Ghrelin was administered to animals with poor physical conditions after surgery for the treatment of various pathological conditions, and various parameters indicating physical conditions before and after administration of ghrelin were analyzed. The surgery included urethroplasty, surgery for a fracture, luxation, disc hernia, or diaphragmatic hernia, surgical removal of a tumor, and surgical removal of a reproductive organ due to pyometra.
Meanwhile, ghrelin was administered to animals with poor physical conditions due to various pathological conditions which had not undergone a surgery, and various parameters indicating physical conditions before and after administration of ghrelin were analyzed. The pathological conditions included filariasis, mite infestation, babesiosis, hemobartonellosis, bite, and dermatitis.

GSS (n-octanoyl) FLSPEHQKLQQRKESKKPPAKLQPR (GSS(Octanoyl)FLSPEHQKLQQRKESKKPPAKLQPR; listed as Canis familiaris) [ghrelin, chemically synthesized, lyophilized]
BUN: significance (p) of improvement after vs before administration (no surgery, 24 animals): p < 0.05 | GPT: significance (p) of improvement after vs before administration (no surgery, 24 animals): p < 0.05 | Vigor: significance (p) of improvement after vs before administration (no surgery, 24 animals): p < 0.01 | WBC: significance (p) of improvement after vs before administration (no surgery, 24 animals): p < 0.05 | BUN: significance (p) of improvement after vs before administration (surgery, 70 animals): p < 0.05 | Body temperature: significance (p) of improvement after vs before administration (surgery, 70 animals): p < 0.01 | CRE: significance (p) of improvement after vs before administration (surgery, 70 animals): p < 0.05 | Degree of anger: significance (p) of improvement after vs before administration (surgery, 70 animals): p < 0.01 | GOT: significance (p) of improvement after vs before administration (surgery, 70 animals): p < 0.01 | GPT: significance (p) of improvement after vs before administration (surgery, 70 animals): p < 0.01 | PLT: significance (p) of improvement after vs before administration (surgery, 70 animals): p < 0.05 | Respiratory rate: significance (p) of improvement after vs before administration (surgery, 70 animals): p < 0.05 | Vigor: significance (p) of improvement after vs before administration (surgery, 70 animals): p < 0.01
